In publication PMC4575030 (PLoS ONE, 2015):

Assays:
rat CFA model of pain = test: CFA-induced thermal hyperalgesia; type: in vivo; conditions: 120 min after dosing, 24 h after CFA
Method: CFA-induced thermal hyperalgesia was measured using the Thermal Plantar Analgesia Instrument (Ugo Basile, Italy). Intensity of the radiant heat stimulus was adjusted to achieve a withdrawal latency of approximately 13 s in naïve animals. On test day one, animals were placed on the apparatus in their individual testing chambers with an absorbent towel at the bottom and allowed to habituate for at least 30 minutes. The towel was then removed and animals were allowed to acclimate for at least 15 minutes more. After habituation, animals were placed back in their home cages until the following day. On test day two, animals were placed back in the testing chambers until calm (typically 20 minutes). The thermal device was positioned on the center of the left hind paw and the test was started. The time for the animal to withdraw its paw from the thermal stimulus was recorded. A cut-off of 30 seconds was used to prevent tissue damage. Few trials went past 20 seconds and none past 25 seconds. This procedure was repeated for three trials per animal, each separated by at least 5 min, and trials were averaged to determine baseline withdrawal latencies. After determining baseline measures, each animal received an injection of 50 μl CFA (1:1 emulsion with PBS, Sigma, St. Louis, MO) into the plantar side of the left hind paw with a 26 gauge needle. Animals were then placed back in their home cages until the following day. Approximately 24 h after the CFA injection, withdrawal latencies to heat were determined as described above. Animals were then randomized based on their Post-CFA baseline score and treated with the test compound or vehicle. […] The experimenter was blinded to drug treatment during this assay. Percent return to baseline latency was used as the endpoint of the assay.

Nav1.7 = test system: Nav1.7; design: method as in PMID 21634377; conditions: extrapolated; cited from earlier work

SMILES: CC(=O)Nc1cccc(Nc2ncnc(N3CCC(OCc4ccc(OC(F)(F)F)cc4)CC3)n2)c1C [Compound 52, N-(2-methyl-3-((4-(4-((4-(trifluoromethoxy)benzyl)oxy)-1-piperidinyl)-1,3,5-triazin-2-yl)amino)phenyl)acetamide]
- Average reversal of thermal hyperalgesia compared to baseline (rat CFA model of pain; 10 mg/kg p.o.): 40%
- Average reversal of thermal hyperalgesia compared to baseline (rat CFA model of pain; 30 mg/kg p.o.): 53%
- Preference for inactivated versus non-inactivated Nav1.7 (Nav1.7): 100 fold
